Measured values published in PubChem BioAssay (NCI).
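The compound was tested at five concentrations on cells cultured in 96-well plates, with a 48-hour exposure period. TGI marks complete inhibition of growth.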

What was measured:
Assay in all cases: NCI anticancer screen, dose series, 48 h
786-0 renal = tested on: 786-0 renal
A498 renal = tested on: A498 renal
A549 NSCLC = tested on: A549 NSCLC
ACHN renal = tested on: ACHN renal
CCRF-CEM leukemia = tested on: CCRF-CEM leukemia
COLO 205 colon = tested on: COLO 205 colon
DLD-1 colon = tested on: DLD-1 colon
DMS 114 small cell lung = tested on: DMS 114 small cell lung
DMS 273 small cell lung = tested on: DMS 273 small cell lung
HCC-2998 colon = tested on: HCC-2998 colon
HCT-116 colon = tested on: HCT-116 colon
HCT-15 colon = tested on: HCT-15 colon
HL-60(TB) leukemia = tested on: HL-60(TB) leukemia
HOP-62 NSCLC = tested on: HOP-62 NSCLC
HOP-92 NSCLC = tested on: HOP-92 NSCLC
HT29 colon = tested on: HT29 colon
IGROV1 ovarian = tested on: IGROV1 ovarian
KM12 colon = tested on: KM12 colon
KM20L2 colon = tested on: KM20L2 colon
LOX IMVI melanoma = tested on: LOX IMVI melanoma
LXFL 529 NSCLC = tested on: LXFL 529 NSCLC
M14 melanoma = tested on: M14 melanoma
M19-MEL melanoma = tested on: M19-MEL melanoma
MALME-3M melanoma = tested on: MALME-3M melanoma
MOLT-4 leukemia = tested on: MOLT-4 leukemia
NCI-H226 lung = tested on: NCI-H226 lung
NCI-H23 lung = tested on: NCI-H23 lung
NCI-H460 lung = tested on: NCI-H460 lung
NCI-H522 lung = tested on: NCI-H522 lung
OVCAR-3 ovarian = tested on: OVCAR-3 ovarian
OVCAR-4 ovarian = tested on: OVCAR-4 ovarian
OVCAR-5 ovarian = tested on: OVCAR-5 ovarian
OVCAR-8 ovarian = tested on: OVCAR-8 ovarian
RPMI-8226 leukemia = tested on: RPMI-8226 leukemia
SF-268 CNS = tested on: SF-268 CNS
SF-295 CNS = tested on: SF-295 CNS
SF-539 CNS = tested on: SF-539 CNS
SK-MEL-2 melanoma = tested on: SK-MEL-2 melanoma
SK-MEL-28 melanoma = tested on: SK-MEL-28 melanoma
SK-MEL-5 melanoma = tested on: SK-MEL-5 melanoma
SK-OV-3 ovarian = tested on: SK-OV-3 ovarian
SN12C renal = tested on: SN12C renal
SNB-75 CNS = tested on: SNB-75 CNS
SNB-78 CNS = tested on: SNB-78 CNS
SR leukemia = tested on: SR leukemia
TK-10 renal = tested on: TK-10 renal
U251 CNS = tested on: U251 CNS
UACC-257 melanoma = tested on: UACC-257 melanoma
UO-31 renal = tested on: UO-31 renal

Measured: TGI

O=C(O)CSc1nnc(COc2ccccc2)n1-c1ccccc1
> 100 µM: all assays above
